# Measurements as given in patent US7208528B1, “Polyamine analogues as therapeutic and diagnostic agents” (MediQuest Therapeutics, Inc., priority 1997, dated 2007).
# Experiments:
# [1] = test system: polyamine transporter (PATr); experiment: Polyamine transport (PAT) inhibition assay, 3H-spermidine uptake into MDA-MB-231 cells; type: cell-based, human; conditions: for Ki: MDA-MB-231 cells
# Description: (§1) The radiometric assay uses radiolabeled polyamines such as putrescine, spermidine or spermine, but, due to the low signal, large numbers of adherent or non-adherent cells are required. Additional care is required with spermine due to its nonspecific adsorption to cells and plastics. Cells are mixed with the test compounds and the radiolabeled polyamine to initiate the assay. The cells are incubated for 1–60 minutes, depending on cell type. The assay is terminated by removal of the medium and cooling the plates to 4° C. The cells are then washed with cold medium three times, dissolved in 0.1% sodium dodecyl sulfate and the radioactivity in solution is then determined by scintillation counting. This assay is difficult to scale up to a high throughput procedure due to the low signal from the radiolabel and the handling requirements inherent in procedures with radioactivity.
# Therefore, the growth assay and a kinetic transport assay have been used to validate transport inhibition.
# The polyamine analogues and derivatives of the invention may be evaluated for their ability to inhibit the uptake of spermidine into MDA cells in culture. Joro spider toxin JSTx-3 is available from Calbiochem; 1-Naphthylacetylspermine is available from RBI. Deoxyspergualin was a generous gift from Paul Gladstone.
# 300 nM 1202 was the maximum concentration tested in initial rate transport assays.
# [2] = target: spermidine/spermine acetyltransferase (SSAT) (Homo sapiens, UniProt P21673); experiment: Spermidine/spermine acetyltransferase enzymatic activity, 14C-acetyl CoA incorporation; type: biochemical; conditions: 1 mM spermidine, 1 mM 14C-acetyl CoA, pH 7.8
# Sequence of spermidine/spermine acetyltransferase (SSAT) (P21673 whole entry, species assumed): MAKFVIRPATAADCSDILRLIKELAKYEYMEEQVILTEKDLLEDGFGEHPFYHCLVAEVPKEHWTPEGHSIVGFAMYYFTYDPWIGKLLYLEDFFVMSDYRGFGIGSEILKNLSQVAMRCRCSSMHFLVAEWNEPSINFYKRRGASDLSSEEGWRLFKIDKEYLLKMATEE
# Description: A study was conducted to determine whether the compositions of the present invention, designed as PAT inhibitors, had other activities on the PA system. Specifically, the ability of DACS to inhibit an enzyme involved in PA recycling was evaluated. The method used was as described in Casero, R. A. et al., Biochem. J. 270:615–620 (1990) hereby incorporated by reference in its entirety. This assay measures the incorporation of ^14C-labeled acetyl CoA into spermidine to form acetylspermidine. Varying concentrations of DACS were added to a reaction mixture containing HEPES buffer, pH 7.8, 1 mM spermidine, and 1 mM ^14C-Acetyl CoA. The product is isolated by binding to phosphocellulose filter paper and the extent of reaction is determined by scintillation counting.
# [3] = test system: T-cell acute lymphoblastic leukemias (ALL), glioblastomas, prostate, and colon cell lines; experiment: In vitro test in combination with ODC inhibitors against several human cancer cell lines; type: cell-based
# Description: DACS was tested in vitro in combination with ODC inhibitors against several human cancer cell lines. These include T-cell acute lymphoblastic leukemias (ALL), glioblastomas, prostate, and colon cell lines.
# [4] = test system: MDA-MB-231 cells; experiment: Growth assay of MDA-MB-231 cells with ODC inhibitor (DFMO) and 1 μM spermidine; conditions: for IC50: read-out: IC50 for growth in combination with ODC inhibitor (DFMO), 230 μM DFMO; for IC50 / IC50 with DFMO, result in words: 1 μM spermidine; for R, ratio of IC50 in the absence of DFMO over IC50 in the presence of DFMO: MDA growth assay; for concentration added to culture media at which growth inhibition due to 1202 and DFMO begins to reverse: cells treated with 1202 and DFMO
# Description: The estrogen insensitive human breast carcinoma MDA-MB-231 cell line as the primary cell line in the screen. […] In order to optimize the screen for polyamine transport inhibition, 1.0 μM spermidine was added to media to reverse the effects of ODC inhibitors. The assay was also performed over seven days because this allows for the greatest dynamic range in cell growth due to the mechanism of ODC inhibitors. Cells need to divide several times before the intracellular level of polyamines begin to decrease to growth inhibitory levels.
# Compounds were tested for their ability to inhibit cell growth in the presence of 1 μM spermidine and 230 μM ODC inhibitor for the MDA-MB-231 cells or 1 mM ODC inhibitor for the PC3 cells.
# In our six day growth assays, 1202 was tested at increasing concentrations with the optimal concentration of DFMO.
# [5] = test system: polyamine transporter (PATr); experiment: Radiometric PAT assay in A172 glioblastoma cells; type: cell-based; conditions: A172 cell line
# Description: as §1
# [6] = test system: MDA breast carcinoma cells; experiment: Rescue from DFMO-induced growth inhibition of MDA cells without added polyamines, six day growth assay; type: cell-based, human; conditions: absence of polyamines
# Description: An additional series of spermine amides were evaluated to extend the structure-activity relationship around this polyamine transport target.
# Growth assays were done over a six day period in order to allow for polyamine depletion within cells. When synthesis of polyamines is inhibited, cells compensate by increasing transport of extracellular polyamines into the cell. Over the time course of the assay, polyamines in the culture media may be depleted resulting in growth inhibition.
# [7] = Solubility in water; type: physicochemical; conditions: pH 7.0
# [8] = test system: cancer cells; conditions: cited from earlier work
Compound,IC50 [4] [nM],Ki [1] [nM],other results
"CN(C)c1cccc2c(S(=O)(=O)NCCCCCC(=O)NCCCNCCCCNCCCN)cccc12 [Compound 4, N^1-[(N^6-dansyl)-6-aminocaproyl]spermine]",600,,"affinity higher than the compound reported by Felschow et al. [1]: 100 times; increase in binding to the PATr by six carbon linker ([1]; versus compound without linker): 10 fold; inhibition of SSAT enzymatic activity [2]: inhibited; effect against tumor cell lines in vitro [3]: effective; concentration at which compound alone becomes growth inhibitory ([4]; alone, without ODC inhibitor): 300 µM; reduction of cell growth ([4]; with ODC inhibitor in the presence of polyamines, day 3): 69%"
"NCCCNCCCCNCCCNC(=O)CCCCCNS(=O)(=O)c1ccc(CNC(=O)c2ccc(Cl)cc2)s1 [Compound 5, N^1-[(N^6-5-(4-chlorobenzamidomethyl)-thiophene-2-sulfonyl)-6-aminocaproyl]spermine]",,,"R, ratio of IC50 in the absence of DFMO over IC50 in the presence of DFMO [4]: 210"
NCCCNCCCCNCCCNC(=O)CCCCCNS(=O)(=O)c1ccc2oc3ccccc3c2c1 [Compound 6],,,"R, ratio of IC50 in the absence of DFMO over IC50 in the presence of DFMO [4]: 220"
"CN(C)CCCN1c2ccccc2CCc2ccccc21 [Compound 165, imipramine, reference compound]",,,type of PAT inhibition ([1]; A172 and MDA cells): non-competitive; inhibition of the PAT assay ([1]; MDA cell line): inhibited; inhibition of the PAT assay [5]: inhibited
"NCCCNCCCCNCCCNC(=O)Cc1cccc2ccccc12 [Compound 1022, 1-Naphthylacetylspermine, reference compound]",8300,230,
"N=C(N)NCCCCCCC(=O)NC(O)C(=O)NCCCCNCCCN (centres unmarked) [Compound 1085, deoxyspergualin, reference compound]",,81,
"NCCCCCC(=O)NCCCNCCCCNCCCN [Compound 1094, N^1-[6-aminocaproylspermine]]",,69,rescue of cells from growth inhibitory effects of DFMO [6]: able to rescue
"NCCCNCCCCNCCCNC(=O)C(N)Cc1c[nH]c2ccccc12 [Compound 1095, N^1-Spermine-L-tryptophanyl amide]",15000,162,
"CC(=O)NCCCNCCCCNCCCN [Compound 1110, N^1-acetylspermine, reference compound]",,162,greater affinity for the transport system than spermidine ([1]; Ki versus Km of spermidine): 3 fold
"NCCCNCCCCNCCC(=O)NCCCCCNC(=O)[C@H](CC(N)=O)NC(=O)Cc1ccc(O)cc1O [Compound 1111, reference compound]",,190,
"NCCCNCCCCNCCCNC(=O)CN [Compound 1125, N^1-Spermine-glycinyl amide]",,87,"rescue of cells from growth inhibitory effects of DFMO [6]: able to rescue; IC50 with DFMO, result in words [4]: failed to give effective IC50 values"
"NCCCNCCCCNCCCNC(=O)C(N)CC(N)=O [Compound 1131, N^1-Spermine-L-asparaginyl amide]",,32,
"NCCCNCCCCNCCCNC(=O)C(N)CCC(N)=O [Compound 1154, N^1-Spermine-L-glutaminyl amide]",,47,"IC50 with DFMO, result in words [4]: failed to give effective IC50 values"
"CC(C)C(N)C(=O)NCCCNCCCCNCCCN [Compound 1157, N^1-Spermine-L-valinyl amide]",16000,84,rescue of cells from growth inhibitory effects of DFMO [6]: not able to rescue
"NCCCNCCCCNCCCNC(=O)[C@@H]1CCCN1 [Compound 1159, N^1-Spermine-L-prolinyl amide]",5000,38,rescue of cells from growth inhibitory effects of DFMO [6]: able to rescue
"CC(C)(C)OC(=O)NCCCNCCCCNCCCN [Compound 1163, N^1-boc-spermine]",,83,
"CSCCC(N)C(=O)NCCCNCCCCNCCCN [Compound 1164, N^1-Spermine-L-methionyl amide]",,34,"IC50 with DFMO, result in words [4]: failed to give effective IC50 values"
"NCCCNCCCCNCCCNC(=O)C(N)Cc1ccc(O)cc1 [Compound 1173, N^1-Spermine-L-tyrosinyl amide]",,77,
"NCCCNCCCCNCCCNC(=O)CCN [Compound 1177, N^1-Spermine-β-alanyl amide]",,71,"IC50 with DFMO, result in words [4]: failed to give effective IC50 values"

Compound,IC50 [4] [nM],Ki [1] [nM],other results
"CC(N)C(=O)NCCCNCCCCNCCCN [Compound 1178, N^1-Spermine-L-alanyl amide]",,244,
"NCCCNCCCCNCCCNC(=O)C(N)CO [Compound 1187, N^1-Spermine-L-serinyl amide]",26000,45,
"CC(C)(C)C(N)C(=O)NCCCNCCCCNCCCN [Compound 1194, N^1-Spermine-L-^tbutylglycinyl amide]",11000,212,
"CC(C)C(N)C(=O)NCCCNCCCCNCCCN [Compound 1196, N^1-Spermine-D-valinyl amide]",9000,48,
"NCCCCC(N)C(=O)NCCCNCCCCNCCCN [Compound 1202, N^1-Spermine-L-lysinyl amide]",,,solubility [7]: ≥ 100000 µM
"CC(O)C(N)C(=O)NCCCNCCCCNCCCN [Compound 1207, N^1-Spermine-L-threoninyl amide]",6000,130,
"NCCCNCCCCNCCCNC(=O)CC12CC3CC(CC(C3)C1)C2 [Compound 1212, N^1-Spermine 2-(1-adamantyl)acetamide]",9000,,
"CC(C)(N)C(=O)NCCCNCCCCNCCCN [Compound 1220, N^1-Spermine-α-aminoisobutyryl amide]",8000,160,
"NCCCNCCCCNCCCNC(=O)C(N)CCCN [Compound 1224, N^1-Spermine-L-ornithyl amide]",3000,47,rescue of cells from growth inhibitory effects of DFMO [6]: not able to rescue
"NCCCNCCCCNCCCNC(=O)C(N)CC1CCCCC1 [Compound 1227, N^1-Spermine-L-cyclohexanealanyl amide]",,241,
"CCC(C)C(N)C(=O)NCCCNCCCCNCCCN [Compound 1228, N^1-Spermine-L-isoleucinyl amide]",9000,124,
"CC(C)CC(N)C(=O)NCCCNCCCCNCCCN [Compound 1230, N^1-Spermine-L-leucinyl amide]",,32,"IC50 with DFMO, result in words [4]: failed to give effective IC50 values"
"NCCCNCCCCNCCCNC(=O)C12CC3CC(CC(C3)C1)C2 [Compound 1235, N^1-spermine 1-adamantylamide]",,1140,
"NCCCNCCCCNCCCNC(=O)C(N)Cc1c[nH]c2ccccc12 [Compound 1309, N^1-Spermine-D-tryptophanyl amide]",,26,
"NCCCCN [PUT, putrescine, reference compound]",,,concentration added to culture media at which growth inhibition due to 1202 and DFMO begins to reverse [4]: greater than 10 μM
"NCCCNCCCCNCCCN [SPM, spermine, reference compound]",,,concentration added to culture media at which growth inhibition due to 1202 and DFMO begins to reverse [4]: 1 µM
NCCCCN(CCCN)CCCNC(=O)CCCc1ccc(N(CCCl)CCCl)cc1 [chlorambucil-spermidine conjugate],,,increase in cytotoxicity compared to chlorambucil alone [8]: ≤ 225 fold
"NCCCCNCCCN [spermidine, reference compound]",,,"Km ([1]; MDA cells, read-out: Km for the transport system): 0.52 µM; concentration added to culture media at which growth inhibition due to 1202 and DFMO begins to reverse [4]: 1 µM"
